Assay results from PubChem BioAssay AID248 (DTP/NCI, 2004).
Inconclusive results and toxic doses are left out. No stated cut-off is given here; in the data, active means T/C of 150% or more; inactive means T/C below 125%.

Tested on: L1210 leukemia ip in BDF1 mice, survival T/C
Assay: NCI In Vivo Anticancer Drug Screen. Data for tumor model L1210 Leukemia (intraperitoneal) in B6D2F1 (BDF1) mice
Conditions: endpoint: mean survival time, higher = longer survival
In short: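 Each compound was tested against a transplantable tumor grown in mice. The endpoint was survival, with treated animals benchmarked against vehicle controls as a simple ratio.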

Measured: T/C

Cc1ccc(S(=O)(=O)O/N=C/C23c4ccccc4C4C(c5ccccc52)C43)cc1 (stereo unspecified)
inactive: dose: 25.0 mg/kg/injection, schedule: Q04DX002 (ip), vehicle: saline with Tween-80 100 % of control | dose: 150.0 mg/kg/injection, schedule: Q04DX002 (ip), vehicle: saline with Tween-80 93 % of control | dose: 300.0 mg/kg/injection, schedule: Q04DX002 (ip), vehicle: saline with Tween-80 93 % of control

CCOCC[n+]1ccc(C)cc1
inactive: dose: 100.0 mg/kg/injection, schedule: Q04DX003 (ip), vehicle: saline 107 % of control | dose: 200.0 mg/kg/injection, schedule: Q04DX003 (ip), vehicle: saline 95 % of control

COc1ccc(C2(C#N)CC2)cc1
inactive: dose: 100.0 mg/kg/injection, schedule: Q01DX009 (ip), vehicle: saline with Tween-80 86 % of control | dose: 100.0 mg/kg/injection, schedule: Q04DX003 (ip), vehicle: saline with Tween-80 101 % of control | dose: 200.0 mg/kg/injection, schedule: Q01DX009 (ip), vehicle: saline with Tween-80 88 % of control | dose: 200.0 mg/kg/injection, schedule: Q04DX003 (ip), vehicle: saline with Tween-80 101 % of control | dose: 400.0 mg/kg/injection, schedule: Q01DX009 (ip), vehicle: saline with Tween-80 103 % of control | dose: 400.0 mg/kg/injection, schedule: Q04DX003 (ip), vehicle: saline with Tween-80 103 % of control
